Experimental data as given in patent US8846672B2, “Imidazopyridines as respiratory syncytial virus antiviral agents” (Janssen R&D Ireland, priority 2010, dated 2014).

Assays:
RSV = RSV inhibitory activity (WT activity); type: cell-based, respiratory syncytial virus
[1] = human respiratory syncytial virus, Table 2, wild-type RSV
[2] = human respiratory syncytial virus, Table 1, wild-type RSV

SMILES	EC50 (RSV; Table 1, wild-type RSV) [nM]	EC50 (RSV; Table 2, wild-type RSV) [nM]	further results
O=c1n(Cc2cn3ccncc3n2)c2cnccc2n1C1CC1 [Compound P14]	> 98400		
CC(C)CC#Cc1c(Cn2c(=O)n(C(C)C)c3ccccc32)nc2ccccn12 [Compound P11]	11300		
O=C(CCc1c(Cn2c(=O)n(C3CC3)c3ccncc32)nc2ccccn12)N1CCOCC1 [Compound P27, 1-cyclopropyl-3-((3-(3-morpholino-3-oxopropyl)imidazo[1,2-a]pyridin-2-yl)methyl)-1H-imidazo[4,5-c]pyridin-2(3H)-one]			EC50 (RSV; [1]): 55.8 nM
O=c1n(Cc2cn3ccccc3n2)c2cnccc2n1C1CC1 [Compound P13]	51500		
O=c1n(Cc2nc3ccccn3c2CCCCO)c2cnccc2n1C1CC1 [Compound P5]	21.8		
CC(C)(C)C=Cc1c(Cn2c(=O)n(C3CC3)c3ccncc32)nc2cnccn12 [Compound P15]		318	
CC(C)(C)CCc1c(Cn2c(=O)n(C3CC3)c3ccncc32)nc2cnccn12 [Compound P16]		172	
O=c1n(Cc2nc3cnccn3c2CCCCO)c2cnccc2n1C1CC1 [Compound P17, 1-cyclopropyl-3-((3-(4-hydroxybutyl)imidazo[1,2-a]pyrazin-2-yl)methyl)-1H-imidazo[4,5-c]pyridin-2(3H)-one]			EC50 (RSV; [1]): 276 nM
O=c1n(Cc2nc3cc(CCCCO)ccn3c2CCCCO)c2cnccc2n1C1CC1 [Compound P10]	> 9840		
COCCCc1c(Cn2c(=O)n(C3CC3)c3ccncc32)nc2cc(Cl)ccn12 [Compound P2]	3.8		
O=C(CCc1c(Cn2c(=O)n(C3CC3)c3ccncc32)nc2cc(Cl)ccn12)N1CCOCC1 [Compound P26, 3-((7-chloro-3-(3-morpholino-3-oxopropyl)imidazo[1,2-a]pyridin-2-yl)methyl)-1-cyclopropyl-1H-imidazo[4,5-c]pyridin-2(3H)-one]			EC50 (RSV; [1]): 2.19 nM
COC(=O)C=Cc1c(Cn2c(=O)n(C3CC3)c3ccncc32)nc2cc(Cl)ccn12 [Compound P20]		2.97	
O=c1n(Cc2nc3ccccn3c2CCC2CC2)c2cnccc2n1C1CC1 [Compound P3, 1-cyclopropyl-3-((3-(2-cyclopropylethyl)imidazo-[1,2-a]pyridin-2-yl)methyl)-1H-imidazo[4,5-c]pyridin-2(3H)-one]			EC50 (RSV; [2]): 5.25 nM; CC50 (Toxicity (CC50)): > 9840 nM
COCC#Cc1c(Cn2c(=O)n(C3CC3)c3ccncc32)nc2cc(Cl)ccn12 [Compound P6]	170		
O=c1n(Cc2nc3cnccn3c2CCCCF)c2cnccc2n1C1CC1 [Compound P18, 1-cyclopropyl-3-((3-(4-fluorobutyl)imidazo[1,2-a]pyrazin-2-yl)methyl)-1H-imidazo[4,5-c]pyridin-2(3H)-one]			EC50 (RSV; [1]): 544 nM
O=c1n(Cc2nc3cc(Cl)ccn3c2CCCCO)c2cnccc2n1C1CC1 [Compound P1, 3-((7-chloro-3-(4-hydroxybutyl)imidazo[1,2-a]pyridin-2-yl)methyl)-1-cyclopropyl-1H-imidazo[4,5-c]pyridin-2(3H)-one]			EC50 (RSV; [2]): 0.4 nM; CC50 (Toxicity (CC50)): > 9840 nM
N#CC=Cc1c(Cn2c(=O)n(C3CC3)c3ccncc32)nc2cc(Cl)ccn12 [Compound P21]		13.6	
CN(C)C(=O)CCc1c(Cn2c(=O)n(C3CC3)c3ccncc32)nc2ccccn12 [Compound P25]		15.3	
CN(C)C(=O)CCc1c(Cn2c(=O)n(C3CC3)c3ccncc32)nc2cc(Cl)ccn12 [Compound P23]		2.61	
CC(C)n1c(=O)n(Cc2cn3ccccc3n2)c2ccccc21 [Compound P12]	16100		
